Counter-ions that a name gives are not always drawn.
Target: T1, JAK3 (Homo sapiens, UniProt P52333)
T1 construct: The Ramos B-cell line was acquired from ATCC (ATCC Catalog No. CRL-1596); host or cells: Ramos B-cell line (human)
T1 sequence (P52333 1-1124): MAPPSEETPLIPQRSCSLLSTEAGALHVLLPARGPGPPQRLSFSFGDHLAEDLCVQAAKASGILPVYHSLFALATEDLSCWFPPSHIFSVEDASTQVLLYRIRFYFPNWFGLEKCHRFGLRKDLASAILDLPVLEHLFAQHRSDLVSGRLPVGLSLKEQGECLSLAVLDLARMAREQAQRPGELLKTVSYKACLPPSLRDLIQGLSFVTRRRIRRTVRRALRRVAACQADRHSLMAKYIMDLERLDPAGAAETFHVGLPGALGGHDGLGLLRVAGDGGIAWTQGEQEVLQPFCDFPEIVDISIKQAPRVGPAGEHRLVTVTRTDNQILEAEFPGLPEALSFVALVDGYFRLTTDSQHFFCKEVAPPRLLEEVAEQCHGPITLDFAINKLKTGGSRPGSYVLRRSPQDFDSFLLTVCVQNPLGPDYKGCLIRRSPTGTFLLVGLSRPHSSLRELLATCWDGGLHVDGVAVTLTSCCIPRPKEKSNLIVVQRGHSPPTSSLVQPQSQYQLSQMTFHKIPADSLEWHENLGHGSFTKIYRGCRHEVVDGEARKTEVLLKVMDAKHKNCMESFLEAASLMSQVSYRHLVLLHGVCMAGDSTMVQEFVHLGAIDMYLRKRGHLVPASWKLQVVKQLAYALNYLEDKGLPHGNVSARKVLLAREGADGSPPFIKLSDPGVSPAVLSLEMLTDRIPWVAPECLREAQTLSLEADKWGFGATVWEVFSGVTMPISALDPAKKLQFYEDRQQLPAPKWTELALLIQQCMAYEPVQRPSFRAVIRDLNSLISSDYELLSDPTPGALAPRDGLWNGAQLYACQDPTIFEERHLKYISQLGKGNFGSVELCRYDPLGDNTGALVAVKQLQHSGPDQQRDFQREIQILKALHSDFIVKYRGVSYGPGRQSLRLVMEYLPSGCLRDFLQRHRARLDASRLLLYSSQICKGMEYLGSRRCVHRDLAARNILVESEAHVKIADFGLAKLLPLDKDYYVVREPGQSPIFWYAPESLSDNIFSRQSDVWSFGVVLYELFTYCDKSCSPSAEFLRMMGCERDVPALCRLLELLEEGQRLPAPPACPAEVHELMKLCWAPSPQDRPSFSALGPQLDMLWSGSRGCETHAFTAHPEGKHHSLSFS
Assay: Assay for CD23 expression on Ramos B-cells stimulated by IL-4 (Table IV: ability to inhibit JAK3 activity)
Assay type: cell-based
Conditions: tested under conditions described in Example 3 (so in the source)
Summary of the method: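 IL-4-induced CD23 surface expression on human Ramos B cells, detected by flow cytometry after 20–24 h stimulation (IL-4 final 50 units/mL). Compound or DMSO added 1 h beforehand at 37 °C; cells kept in RPMI with 5% serum.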

Row | IC50 [µM] | Structure (SMILES)
1 | > 10 | COC(=O)c1cnc(Nc2cc(OC)cc(C(F)(F)F)c2)nc1Nc1ccc2oc(=O)[nH]c2c1 [Compound I-55, 2-(3-Methoxy-5-trifluoromethyl-phenylamino)-4-(2-oxo-2,3-dihydro-benzooxazol-5-ylamino)-pyrimidine-5-carboxylic acid methyl ester trifluoroacetate salt]
2 | < 0.5 | O=c1[nH]c2cc(Nc3nc(Nc4cccc(C(O)C(F)(F)F)c4)ncc3F)ccc2o1 (centres unmarked) [Compound I-210, 5-fluoro-N2-[3-(1-hydroxy-2,2,2-trifluoroethyl)]phenyl-N4-(2-oxo-2,3-dihydro-1,3-benzoxazol-5-yl)-2,4-pyrimidinediamine]
3 | < 0.5 | O=C(Nc1ccccc1)c1ccc(Nc2ncc(F)c(Nc3ccc4oc(=O)[nH]c4c3)n2)cc1C(F)(F)F [Compound I-166, 4-(5-fluoro-4-(2-oxo-2,3-dihydrobenzo[d]oxazol-5-ylamino)pyrimidin-2-ylamino)-N-phenyl-2-(trifluoromethyl)benzamide formate salt]
4 | > 10 | COC(=O)c1cnc(Nc2ccccc2)nc1Nc1ccc2oc(=O)[nH]c2c1 [Compound I-39, 4-(2-oxo-2,3-dihydro-benzooxazol-5-ylamino)-2-phenylamino-pyrimidine-5-carboxylic acid methyl ester trifluoroacetate salt]
5 | < 0.5 | COc1cc(Nc2ncc(F)c(Nc3cc(F)c4oc(=O)[nH]c4c3)n2)cc(C)c1OC [Compound I-184, 5-(2-(3,4-dimethoxy-5-methylphenylamino)-5-fluoropyrimidin-4-ylamino)-7-fluorobenzo[d]oxazol-2(3H)-one trifluoroacetate salt]
6 | > 10 | COC(=O)c1cnc(Nc2ccc(F)c(OC)c2F)nc1Nc1ccc2oc(=O)[nH]c2c1 [Compound I-48, 2-(2,4-Difluoro-3-methoxy-phenylamino)-4-(2-oxo-2,3-dihydro-benzooxazol-5-ylamino)-pyrimidine-5-carboxylic acid methyl ester trifluoroacetate salt]
7 | < 0.5 | Cc1cc(Nc2ncc(Br)c(Nc3ccc4oc(=O)[nH]c4c3)n2)cc(C)c1C [Compound I-16, 5-(5-bromo-2-(3,4,5-trimethylphenylamino)pyrimidin-4-ylamino)benzo[d]oxazol-2(3H)-one formate salt]
8 | < 0.5 | COc1ccc(Nc2ncc(C)c(Nc3ccc4oc(=O)[nH]c4c3)n2)cc1N [Compound I-34, 5-[2-(3-Amino-4-methoxy-phenylamino)-5-methyl-pyrimidin-4-ylamino]-3H-benzooxazol-2-one]
9 | 0.5 to 5 | Cc1cnc(Nc2cc(C)c(C)c(C(=O)O)c2)nc1Nc1ccc2oc(=O)[nH]c2c1 [Compound I-145, N2-(3-carboxy-4,5-dimethyl)phenyl-5-methyl-N4-(2-oxo-2,3-dihydro-1,3-benzoxazol-5-yl)-2,4-pyrimidinediamine]
10 | < 0.5 | COC(=O)c1c(C)cc(Nc2ncc(C)c(Nc3ccc4oc(=O)[nH]c4c3)n2)cc1C [Compound I-138, N2-(3,5-dimethyl-4-methoxycarbonyl)phenyl-5-methyl-N4-(2-oxo-2,3-dihydro-1,3-benzoxazol-5-yl)-2,4-pyrimidinediamine]
11 | 0.5 to 5 | Cc1cc(C)nc(Nc2ncc(C)c(Nc3ccc4oc(=O)[nH]c4c3)n2)c1 [II-15, N2-(4,6-dimethylpyridin-2-yl)-5-methyl-N4-(2-oxo-2,3-dihydro-1,3-benzoxazol-5-yl)-2,4-pyrimidinediamine]
12 | < 0.5 | CCc1ccc(Nc2ncc(C)c(Nc3ccc4oc(=O)[nH]c4c3)n2)c(F)c1OC [Compound I-68, 5-[2-(4-Ethyl-2-fluoro-3-methoxy-phenylamino)-5-methyl-pyrimidin-4-ylamino]-3H-benzooxazol-2-one trifluoroacetate salt]
13 | < 0.5 | Cc1cnc(Nc2ccc(CC=O)cc2)nc1Nc1ccc2oc(=O)[nH]c2c1 [Compound I-30, {4-[5-Methyl-4-(2-oxo-2,3-dihydro-benzooxazol-5-ylamino)-pyrimidin-2-ylamino]-phenyl}-acetaldehyde]
14 | 0.5 to 5 | NC(=O)c1cccc(Nc2nccc(Nc3ccc4oc(=O)[nH]c4c3)n2)c1 [Compound I-3, 3-(4-(2-oxo-2,3-dihydrobenzo[d]oxazol-5-ylamino)pyrimidin-2-ylamino)benzamide trifluoroacetate salt]
15 | 5 to 10 | COc1ccc(F)c(Nc2ncc(F)c(Nc3ccc4oc(=O)[nH]c4c3)n2)c1 [Compound I-119, 5-(5-fluoro-2-(2-fluoro-5-methoxyphenylamino)pyrimidin-4-ylamino)benzo[d]oxazol-2(3H)-one]
16 | < 0.5 | Cc1cnc(Nc2cc(C)c(C(=O)OCc3ccccc3)c(C)c2)nc1Nc1ccc2oc(=O)[nH]c2c1 [Compound I-141, N2-(4-benzyloxycarbonyl-3,5-dimethyl)phenyl-5-methyl-N4-(2-oxo-2,3-dihydro-1,3-benzoxazol-5-yl)-2,4-pyrimidinediamine]
17 | 0.5 to 5 | COc1c(F)ccc(Nc2ncc(F)c(Nc3cc(C)c4oc(=O)[nH]c4c3)n2)c1F [Compound I-192, 5-(2-(2,4-difluoro-3-methoxyphenylamino)-5-fluoropyrimidin-4-ylamino)-7-methylbenzo[d]oxazol-2(3H)-one trifluoroacetate salt]
18 | > 10 | COc1cc(Nc2ncc(F)c(Nc3cc(C)c4oc(=O)[nH]c4c3)n2)cc(C(F)(F)F)c1 [Compound I-176, 5-(2-(3-(trifluoromethyl)-5-methoxyphenylamino)-5-fluoropyrimidin-4-ylamino)-7-methylbenzo[d]oxazol-2(3H)-one trifluoroacetate salt]
19 | < 0.5 | O=c1[nH]c2cc(Nc3nc(Nc4ccc(C(F)(F)F)cc4)ncc3Cl)ccc2o1 [Compound I-15, 5-(5-chloro-2-(4-(trifluoromethyl)phenylamino)pyrimidin-4-ylamino)benzo[d]oxazol-2(3H)-one trifluoroacetate salt]
20 | 0.5 to 5 | Cc1cnc(Nc2cc(C)c(C(=O)O)c(C)c2)nc1Nc1ccc2oc(=O)[nH]c2c1 [Compound I-140, N2-(4-carboxy-3,5-dimethyl)phenyl-5-methyl-N4-(2-oxo-2,3-dihydro-1,3-benzoxazol-5-yl)-2,4-pyrimidinediamine]
21 | < 0.5 | COc1ccc(Nc2ncc(F)c(Nc3ccc4oc(=O)[nH]c4c3)n2)cc1C(F)F [Compound I-197, 5-(2-(3-(difluoromethyl)-4-methoxyphenylamino)-5-fluoropyrimidin-4-ylamino)benzo[d]oxazol-2(3H)-one formate salt]
22 | > 10 | COC(=O)c1cnc(Nc2ccc(C)c(OC)c2)nc1Nc1ccc2oc(=O)[nH]c2c1 [Compound I-56, 2-(3-Methoxy-4-methyl-phenylamino)-4-(2-oxo-2,3-dihydro-benzooxazol-5-ylamino)-pyrimidine-5-carboxylic acid methyl ester trifluoroacetate salt]
23 | < 0.5 | COc1cccc(Nc2ncc(Cl)c(Nc3ccc4oc(=O)[nH]c4c3)n2)c1F [Compound I-21, 5-(5-chloro-2-(2-fluoro-3-methoxyphenylamino)pyrimidin-4-ylamino)benzo[d]oxazol-2(3H)-one trifluoroacetate salt]
24 | < 0.5 | Cc1cnc(Nc2cc(C)c(C)c(C)c2)nc1Nc1ccc2oc(=O)n(COP(=O)(O)O)c2c1 [Compound I-130, 5-methyl-N4-[3-(phosphonooxy)methyl-2-oxo-2,3-dihydro-1,3-benzoxazol-5-yl]-N2-(3,4,5-trimethyl)phenyl-2,4-pyrimidinediamine arginine salt]
25 | < 0.5 | COc1ccc(Nc2ncc(F)c(Nc3ccc4oc(=O)[nH]c4c3)n2)cc1OCC(=O)NC1CC1 [Compound I-213, N2-[3-(cyclopropylaminocarbonylmethoxy)-4-methoxy]phenyl-5-fluoro-N4-(2-oxo-2,3-dihydro-1,3-benzoxazol-5-yl)-2,4-pyrimidinediamine]
26 | < 0.5 | COc1ccc(Nc2ncc(C)c(Nc3ccc4oc(=O)[nH]c4c3)n2)c(F)c1OC [Compound I-50, 5-[2-(2-Fluoro-3,4-dimethoxy-phenylamino)-5-methyl-pyrimidin-4-ylamino]-3H-benzooxazol-2-one]
